Source: US6613322B2, “Method for treating a subject suffering from conditions associated with an extracellular zinc sphingomyelinase” (The Trustees of Columbia University in the City of New York, priority 1997, dated 2003)

Tests used:
L-SMase = target: T1, L-SMase (Mus musculus, UniProt Q04519); assay: SMase assay of cell homogenate from J774 macrophages (SM micelles, pH 5.0); assay type: biochemical; details: 1,10-phenanthroline alone
T1 construct: endogenous in cells; host or cells: J774.A1 macrophages, sonicated cell homogenate
T1 sequence (Q04519 45-627): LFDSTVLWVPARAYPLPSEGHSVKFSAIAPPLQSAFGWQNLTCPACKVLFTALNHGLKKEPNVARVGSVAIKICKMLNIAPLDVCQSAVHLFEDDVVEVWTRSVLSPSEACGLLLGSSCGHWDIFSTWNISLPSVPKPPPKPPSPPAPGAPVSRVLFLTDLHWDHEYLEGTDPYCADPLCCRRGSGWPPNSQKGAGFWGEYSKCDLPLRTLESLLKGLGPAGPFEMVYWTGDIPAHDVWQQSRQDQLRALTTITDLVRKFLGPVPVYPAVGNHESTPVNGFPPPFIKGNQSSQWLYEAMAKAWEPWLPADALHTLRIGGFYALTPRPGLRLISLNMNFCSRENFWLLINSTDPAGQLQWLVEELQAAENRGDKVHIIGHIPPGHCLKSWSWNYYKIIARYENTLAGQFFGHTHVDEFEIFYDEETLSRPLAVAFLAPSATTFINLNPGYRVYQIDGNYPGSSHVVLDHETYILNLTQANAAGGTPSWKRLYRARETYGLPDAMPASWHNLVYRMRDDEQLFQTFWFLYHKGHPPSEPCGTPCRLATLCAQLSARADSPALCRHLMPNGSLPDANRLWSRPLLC
Description: FIGS. 14A-B. Sequential chelation and addition of Zn^2+ to secreted and intracellular SMase. Serum-free conditioned medium and a cell homogenate from J774 macrophages were prepared as described in “Experimental Procedures”. FIG. 14A, conditioned medium (CM) was assayed for SMase activity using 250 nM [^3H]sphingomyelin in Triton X-100 micelles in the presence of either 5 mM EDTA (first bar) or 0.1 mM ZnCl2 (second bar) for 1 h at 37° C. at pH 5.0. An aliquot of the Zn-activated conditioned medium was then incubated for 18 h in the presence of 10 mM EDTA, 10 mM 1,10-phenanthroline, and 0.6% Triton X-100 at 4° C. (EDTA PHNANTH) and then assayed for SMase activity (third bar). […]
(§1) SMase Assay—As previously described (Schissel et al., 1996), the standard 200-μl assay mixture consisted of up to 40 μl of sample (conditioned media or homogenized cells; see above) and a volume of assay buffer (0.1 M sodium acetate, pH 5.0) to bring the volume to 160 μl. […] The ceramide spots were scraped and directly counted to quantify [^3H]ceramide. Typically, the assay reactions contained approximately 20 μg of cellular homogenate protein and a volume of conditioned media derived from a quantity of cells equivalent to approximately 50 μg of cellular protein.

S-SMase [1] = target: T2, S-SMase (Mus musculus, UniProt Q04519); assay: SMase assay of conditioned medium from J774 macrophages (SM micelles, pH 5.0); assay type: biochemical; details: 1,10-phenanthroline alone
T2 construct: endogenous in cells; host or cells: J774.A1 macrophages, serum-free conditioned medium
T2 sequence (Q04519 45-627): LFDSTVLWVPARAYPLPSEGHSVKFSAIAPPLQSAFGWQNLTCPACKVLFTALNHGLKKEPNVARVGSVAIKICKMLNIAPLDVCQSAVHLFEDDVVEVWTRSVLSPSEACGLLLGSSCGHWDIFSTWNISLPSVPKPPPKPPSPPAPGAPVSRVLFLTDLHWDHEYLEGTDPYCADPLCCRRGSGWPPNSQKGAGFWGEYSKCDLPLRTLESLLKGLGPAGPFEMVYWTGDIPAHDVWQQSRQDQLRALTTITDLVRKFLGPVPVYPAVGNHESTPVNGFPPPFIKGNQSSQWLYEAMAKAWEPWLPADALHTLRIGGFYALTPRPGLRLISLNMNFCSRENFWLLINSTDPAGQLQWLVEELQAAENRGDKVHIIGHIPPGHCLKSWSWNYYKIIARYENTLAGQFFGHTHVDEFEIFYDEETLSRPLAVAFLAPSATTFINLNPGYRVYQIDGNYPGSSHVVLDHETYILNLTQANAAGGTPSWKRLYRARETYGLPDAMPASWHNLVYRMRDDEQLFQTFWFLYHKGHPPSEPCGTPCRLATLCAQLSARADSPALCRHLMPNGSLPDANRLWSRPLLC
Description: FIGS. 14A-B. Sequential chelation and addition of Zn^2+ to secreted and intracellular SMase. Serum-free conditioned medium and a cell homogenate from J774 macrophages were prepared as described in “Experimental Procedures”. FIG. 14A, conditioned medium (CM) was assayed for SMase activity using 250 nM [^3H]sphingomyelin in Triton X-100 micelles in the presence of either 5 mM EDTA (first bar) or 0.1 mM ZnCl2 (second bar) for 1 h at 37° C. at pH 5.0. An aliquot of the Zn-activated conditioned medium was then incubated for 18 h in the presence of 10 mM EDTA, 10 mM 1,10-phenanthroline, and 0.6% Triton X-100 at 4° C. (EDTA PHNANTH) and then assayed for SMase activity (third bar). After chelation, a portion of this partially inactivated conditioned medium was then dialyzed against zinc-containing buffer C (150 mM NaCl, 10 mM Tris-HCl, 1 mM ZnCl2, 0.6% Triton X-100, pH 7.4) for 18 h and then assayed for SMase activity (fourth bar). FIG. 14B, an aliquot of cell homogenate (Cell Homgn) was assayed for SMase activity in the presence of assay buffer alone (first bar), 5 mM EDTA (second bar), or 0.1 mM ZnCl2 (third bar). Another aliquot of cell homogenate was incubated for 8 h in the presence of 10 mM EDTA, 10 mm 1,10-phenanthroline, and 0.6% Triton X-100 (EDTA PHNANTH) at 4° C. and then assayed for SMase activity (fourth bar). An aliquot of this chelator-treated cell homogenate was then dialyzed against zinc-containing buffer C for 18 h and then assayed for SMase activity (fifth bar).
as §1

S-SMase [2] = target: T3, S-SMase (Homo sapiens, UniProt P17405); assay: Zn2+ activation of S-SMase in presence of zinc-metalloproteinase inhibitors; assay type: biochemical
T3 sequence (P17405 47-631): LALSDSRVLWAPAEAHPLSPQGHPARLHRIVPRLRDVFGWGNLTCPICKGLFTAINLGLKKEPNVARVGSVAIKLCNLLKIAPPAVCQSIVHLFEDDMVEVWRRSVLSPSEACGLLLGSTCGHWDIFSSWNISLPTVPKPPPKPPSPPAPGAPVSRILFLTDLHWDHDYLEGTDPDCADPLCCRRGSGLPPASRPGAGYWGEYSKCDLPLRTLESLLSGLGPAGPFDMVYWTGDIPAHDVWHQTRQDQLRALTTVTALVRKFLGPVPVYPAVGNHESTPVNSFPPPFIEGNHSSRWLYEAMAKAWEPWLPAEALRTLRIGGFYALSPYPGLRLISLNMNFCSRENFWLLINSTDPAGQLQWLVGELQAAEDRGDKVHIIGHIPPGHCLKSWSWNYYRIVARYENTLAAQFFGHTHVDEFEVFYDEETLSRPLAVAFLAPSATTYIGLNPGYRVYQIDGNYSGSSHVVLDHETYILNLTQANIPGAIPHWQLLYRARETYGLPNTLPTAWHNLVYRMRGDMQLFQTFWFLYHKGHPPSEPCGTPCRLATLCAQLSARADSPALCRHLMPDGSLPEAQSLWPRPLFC
Description: as §1, with “μl. The reaction was initiated by the addition of 40 μl substrate (50 pmol [^3H]sphingomyelin) in 0.25 M sucrose containing 3% Triton X-100 (final concentration of Triton X-100 in the 200-μl assay mix=0.6%). When added, the final concentrations of EDTA and Zn^2+ were 5 mM and 0.1 mm, respectively, unless indicated otherwise.” for “μl.”
One question was how L- and S-SMase acquire their apparent differences in zinc-dependency. One explanation would be that the secreted form requires a Zn^2+-dependent co-factor. Because many lysosomal enzymes undergo proteolytic activation (Hasilik, 1992), an obvious candidate for a Zn^2+-dependent co-factor would be a zinc-metalloproteinase. The results of five experiments, however, ruled out this possibility. First, Zn^2+-activated S-SMase can be subsequently inactivated by Zn^2+-chelation (see below); reversibility of Zn^2+-induced activation is not consistent with proteolytic activation. […] Third, mammalian zinc-metalloproteinases require Ca^2+ as well as Zn^2+, for activity (Reynolds, 1996), whereas Ca^2+ is not a requirement for the activation of S-SMase (Schissel et al., 1996).

[3] = system: S-SMase secretion by HUVECs; assay: Cytokine regulation of S-SMase secretion by HUVECs (SMase activity in conditioned media); assay type: cell-based, human; details: 18 h, interferon-β 1000 units/ml, IL-4 10 ng/ml
S-SMase [4] = target: T3, S-SMase; assay: S-SMase treatment of [3H]SM-LDL and [3H]SM-emulsions at pH 7.4; assay type: biochemical; design: endogenous in cells; host or cells: primary HUVEC, 24-h serum-free conditioned medium
Description: [^3H]SM-emulsions. [^3H]SM-emulsions with a lipid composition similar to human LDL were prepared as follows: 5.4 mg cholesteryl oleate, 0.48 mg triolein, 1.08 mg free cholesterol, 2.04 mg phosphatidylcholine, 0.96 mg sphingomyelin, and 50 μCi [N-palmitoyl-9,10^−3H]sphingomyelin were all added in chloroform to a sonication vial and the solvent completely evaporated by exposure to a stream of nitrogen, followed by the high vacuum of a lyophilizer. The dried lipids were resuspended in 3 mL of buffer containing 150 mM NaCl, 0.3 mM EDTA pH 7.4 and sonicated under a stream of argon at 40° C. until translucent (approximately 90 min) The sonicated material was then centrifuged twice at 15,000×g to pellet any titanium shed from the sonication probe. SM-rich emulsions were prepared exactly as above except that 1.2 mg of phosphatidylcholine and 1.8 mg of SM were used, and sonication time was increased to 120 min. [^3H]SM-emulsions were enriched with apo CIII based on the method of Ahmad et al. (Ahmad et al., 1986). Briefly, [^3H]SM-emulsions (0.4 mL; 182 nmol SM) were incubated with 200 μg apo CIII (22.5 nmol) for 2 h at 40° C. A portion of the emulsions were re-isolated from free ape CIII using ultrafiltration (Clavey et al., 1995) as follows: the crude emulsion-apo CIII mixture was diluted to 2 mL with buffer containing 150 mM NaCl, 0.3 mM EDTA pH 7.4 and ultra filtered and concentrated to 0.2 mL using a CENTRICON® 30 (molecular weight cut-off=30,000); the concentrated emulsions were then diluted to 2 mL and the process was repeated 5 times. [^3H]SM-emulsions run through the same enrichment and re-isolation protocols in the absence of apo CIII served as the control for the experiments in FIG. 11A.
S-SMase. The source of S-SMase was serum-free conditioned medium from DG44 CHO cells stably transfected with the human acid SMase cDNA (Schissel et al., 1996; Schuchman et al., 1991). […] Cells were plated in 100-mm dishes and cultured for 48 h in DMEM/FBS/PSG. The cells were then changed to low protein serum-free media for 12 h. washed 3 times with PBS, and finally incubated for 18 h in fresh serum-free media (6 mL per 100-mm dish) The “18-h conditioned medium” was then collected, centrifuged at 1000×g to pellet any cells and, except where indicated, ZnCl2 (final concentration=100 μM) was added to fully activate and stabilize S-SMase; this S-SMase-containing conditioned media was then used fresh to treat LDL and lipid emulsions.
S-SMase Treatment of LDL and Emulsions. The standard incubation mixture consisted of up to 50 μl of sample (LDL or emulsions). […] The ceramide spots were scraped and directly counted to quantify [^3H]ceramide. In all other samples ceramide was determined as described above.

What does the source list for `c1cnc2c(c1)ccc1cccnc12` [1,10-phenanthroline]?
inhibition of L-SMase (L-SMase): does not inhibit; inhibition of S-SMase (S-SMase [1]): does not inhibit

“HO—NH—CO—CH2—CH(CH2CH(CH3)2)—C)-Nal-Ala-NH—CH2—CH2—NH2” was tested. Which “effect on ability of Zn2+ to activate S-SMase” value (shortened to “effect on ability of Zn2+”) (S-SMase [2]) did it give?
Its value is “did not affect”.

Which “effect on ability of Zn2+” value (S-SMase [2]) does the source give for “HS—CH2—R—CH(CH2—CH(CH3)2)—C)-Phe-Ala-NH2” here?
Its value is “did not affect”.

With IL-4: human recombinant interleukin-4 as the molecule, how does the “accumulation of S-SMase in conditioned media (qualitative)” value [3] read?
The value was “no effect”.

“TIMP-1: tissue inhibitor of metalloproteinase-1, inhibitor of zinc-metalloproteinases” was tested. Which “effect on ability of Zn2+” value (S-SMase [2]) did it give?
Its value is “did not affect”.

For “apo CIII: human native apolipoprotein CIII”, which “S-SMase hydrolysis of [3H]SM-emulsions versus control emulsions” value (S-SMase [4]; emulsion-bound + free apo CIII) is on record?
The value was “two-fold greater”.

What about the “S-SMase hydrolysis of [3H]SM-emulsions versus control emulsions” value (S-SMase [4]; emulsion-bound apo CIII only) of the same molecule?
The value was “approximately ten-fold more”.

Which “stimulation of S-SMase hydrolysis of [3H]SM-LDL” value (S-SMase [4]; exogenously added) does the source give for lysophosphatidylcholine here?
Its value is 2-3 fold.

B1: sPLA2: human recombinant nonpancreatic soluble PLA2 (protein, UniProt P14555 21-144, looked up)
Phospholipase A2, membrane …: NLVNFHRMIKLTTGKEAALSYGFYGCHCGVGGRGSPKDATDRCCVTHDCCYKRLEKRGCGTKFLSYKFSNSGSRITCAKQDSCRSQLCECDKAAATCFARNKTTYNKKYQYYSNKHCRGSTPRC
Which “S-SMase hydrolysis of [3H]SM-LDL after treating the LDL with sPLA2” value (S-SMase [4]; LDL pretreated 14 h at 37° C.) does the source give for B1 here?
Its value is “markedly enhanced”.
